Measurements reported in US20230040415A1 (PureTech LYT 100, Inc., priority 2020, published 2023).
Read-outs that look alike come from different tables or passages of the source.

Experiments:
[1] = Repeat dose oral toxicity and toxicokinetics study in Sprague Dawley rats; conditions: for dose proportionality of AUC0-24 / dose proportionality of Cmax: SD-560 250 to 750 mg/kg, Groups 2 to 4; for exposure in rat relative to human: male rat after 28 days of daily dosing vs human
[2] = Single-dose crossover clinical trial, 801 mg LYT-100 vs pirfenidone, plasma pharmacokinetics; conditions: for Cmax / % AUC extrap / AUC0-t / AUC(inf) / Kel / t1/2 / tmax: fed, analyte = label; for Cmax / % AUC extrap / AUC0-t / AUC(inf) / Kel / t1/2: mean; for Cmax: n = 24; for tmax: median
[3] = Multiple ascending dose (MAD) study Part 1, plasma pharmacokinetics
[4] = parameters: AUC, Fasted / AUC, Fed: unit not given beside the values; conditions: cited from earlier work; for share of recovered drug material in urine excreted as label: humans, oral pirfenidone
[5] = Food effect study Part 2, single 500 mg dose fed vs fasted; format: in vivo, human
Protocol: The comparison will be based on Day 1, Day 2 and Day 3 PK plasma samples after the first dose of study drug on Day 1 under fast and fed conditions of Part 2.
Subjects will be admitted to the CRU on Day −1 and will fast overnight for at least 10 h.

[6] = cited from earlier work
[7] = Day 1, Female, label = Group 4 analyte vs its non-deuterated counterpart
[8] = FIG. 23 (Cohort 6, 1000 mg BID)
[9] = LYT-100 100, 250, 500, 750 mg BID cohorts (FIG. 19)
[10] = LYT-100 @500 mg single dose, analyte = label
[11] = LYT-100 @500 mg, 5-CO2 metabolite
[12] = Treatment = LYT-100, single 801 mg oral dose
[13] = Treatment = LYT-100, single 801 mg
[14] = Treatment = Pirfenidone, single 801 mg oral dose
[15] = Treatment = Pirfenidone, single 801 mg

Row | average ratio of metabolite to the parent (M/P) by AUC [3, 8] | average ratio of metabolite to the parent (M/P) by AUC [3, 9] | Cmax [2, 12] [ng/mL] | % AUC extrap [2, 13] [%] | AUC0-t [2, 13] [ng·h/mL] | AUC(inf) [2, 13] [ng·h/mL] | Kel [2, 13] [h⁻¹] | t1/2 [2, 13] [h] | tmax [2, 13] [h] | Cmax [2, 14] [ng/mL] | % AUC extrap [2, 15] [%] | AUC0-t [2, 15] [ng·h/mL] | SMILES | AUC ratio Group 4 (LYT-100 at 750 mg/kg) / Group 5 (SD-559 at 750 mg/kg) [1, 7] | AUC ratio Group 4 (LYT-100 at 750 mg/kg) / Group 5 (SD-559 at 750 mg/kg) ([1]; Day 1, Male) | AUC ratio Group 4 (LYT-100 at 750 mg/kg) / Group 5 (SD-559 at 750 mg/kg) ([1]; Day 28, Female) | dose proportionality of AUC0-24 [1] | dose proportionality of Cmax [1] | AUC ratio Group 4 (LYT-100 at 750 mg/kg) / Group 5 (SD-559 at 750 mg/kg) ([1]; Day 28, Male) | exposure in rat relative to human [1] [fold] | share of recovered drug material in urine excreted as label [4] | also measured
1 | 0.0028 (0.0018-0.0038) | 0.0025 (0.0020-0.0029) | 20.6 | 10.1 | 111 | 124 | 0.294 | 2.76 | 2.50 |  |  |  | [2H]C([2H])(O)c1ccc(=O)n(-c2ccccc2)c1 [LYT-110, 5-(hydroxymethyl-d2)-pirfenidone] | 2.50 | 2.22 | 2.59 | dose proportional | dose proportional | 2.54 | ~1600 |  | exposure and Cmax vs non-deuterated metabolite SD-788 from SD-559 ([1]; 750 mg/kg, all days, both genders): almost twice
2 |  |  |  |  |  |  |  |  |  | 17.1 | 10.3 | 75.8 | O=c1ccc(CO)cn1-c1ccccc1 [LYT-111, 5-hydroxymethyl-pirfenidone] |  |  |  |  |  |  |  |  | AUC(inf) [2, 15]: 89.7 ng·h/mL; Kel [2, 15]: 0.367 h⁻¹; t1/2 [2, 15]: 2.04 h; tmax [2, 15]: 2.50 h; overall systemic exposure (AUC) of metabolite greater after LYT-100 than after pirfenidone ([2]; single 801 mg dose each): approximately 50%

The remaining lines, values behind:

Row | SMILES | average ratio of metabolite to the parent (M/P) by AUC [3, 8] | average ratio of metabolite to the parent (M/P) by AUC [3, 9] | Cmax [2, 12] [ng/mL] | % AUC extrap [2, 13] [%] | AUC0-t [2, 13] [ng·h/mL] | AUC(inf) [2, 13] [ng·h/mL] | Kel [2, 13] [h⁻¹] | t1/2 [2, 13] [h] | tmax [2, 13] [h] | Cmax [2, 14] [ng/mL] | % AUC extrap [2, 15] [%] | AUC0-t [2, 15] [ng·h/mL] | AUC ratio Group 4 (LYT-100 at 750 mg/kg) / Group 5 (SD-559 at 750 mg/kg) [1, 7] | AUC ratio Group 4 (LYT-100 at 750 mg/kg) / Group 5 (SD-559 at 750 mg/kg) ([1]; Day 1, Male) | AUC ratio Group 4 (LYT-100 at 750 mg/kg) / Group 5 (SD-559 at 750 mg/kg) ([1]; Day 28, Female) | dose proportionality of AUC0-24 [1] | dose proportionality of Cmax [1] | AUC ratio Group 4 (LYT-100 at 750 mg/kg) / Group 5 (SD-559 at 750 mg/kg) ([1]; Day 28, Male) | exposure in rat relative to human [1] [fold] | share of recovered drug material in urine excreted as label [4] | also measured
3 | [2H]C([2H])([2H])c1ccc(=O)n(-c2ccc(O)cc2)c1 [LYT-103, d3-4′-hydroxy-pirfenidone] | 0.0037 (0.0030-0.0058) | 0.0017 (0.0012-0.0022) |  |  |  |  |  |  |  |  |  |  | 21.77 | 34.51 | 38.04 | dose proportionally | less than dose proportional |  |  |  | quantifiability of metabolite in human ([2]; after LYT-100): not quantifiable
4 | O=C(O)c1ccc(=O)n(-c2ccccc2)c1 [LYT-105, 5-carboxy-pirfenidone] | 0.56 (0.44-0.66) | 0.45 | 3970 | 1.13 | 23090 | 23350 | 0.262 | 2.91 | 2.50 | 5241 | 0.843 | 26932 | 0.49 | 0.45 | 0.71 | dose proportional | approximately dose proportional | 0.57 | ~7 | > 95% | lower Cmax and exposure than SD-789 formed from SD-559 ([1]; SD-560 750 mg/kg vs SD-559 750 mg/kg): approximately 50%; plasma exposure relative to exposure to pirfenidone ([4]; Huang, 2013): approximately 50%; AUC, % Change Fed vs Fasted [5, 10]: < 5%; Cmax, % Change Fed vs Fasted [5, 10]: < 5%; Tmax, Fasted [5, 11]: 0.75 h; Tmax, Fed [5, 11]: 1 h; AUC(inf) [2, 15]: 27159 ng·h/mL; Kel [2, 15]: 0.288 h⁻¹; t1/2 [2, 15]: 2.55 h; tmax [2, 15]: 3.00 h; Cmax reduction of 5-carboxy-pirfenidone after LYT-100 relative to pirfenidone ([2]; single 801 mg dose each): 25%; average ratio of metabolite to the parent (M/P) by AUC ([3]; LYT-100 100, 250, 500, 750 mg BID cohorts (FIG. 19), listed as SD-789): 0.45 (0.37-0.50); dose dependence of AUC96-108 ([3]; across all dose Cohorts, 100-1000 mg BID): linear dose proportionality
5 | Cc1ccc(=O)n(-c2ccccc2)c1 [Pirfenidone, 5-methyl-1-phenyl-1H-pyridin-2-one] |  |  |  |  |  |  |  |  |  |  |  |  |  |  |  |  |  |  |  | less than 1% | AUC, Fasted ([4]; Pirfenidone @800 mg): 69.7; AUC, Fed ([4]; Pirfenidone @800 mg): 59.3; Tmax, % Change Fed vs Fasted ([4]; Pirfenidone @800 mg): 500%; Tmax, Fasted ([4]; Pirfenidone @800 mg): 0.5 h; diarrhea, frequency ([6]; Lancaster et al. 2017, IPF): ≤ 27.6 per 100PEY; fatigue, frequency ([6]; Lancaster et al. 2017, IPF): ≤ 52.4 per 100PEY; nausea, frequency ([6]; Lancaster et al. 2017, IPF): ≤ 62.1 per 100 PEY; adverse drug reactions leading to permanent treatment discontinuation ([6]; PASSPORT study, Cottin et al. 2018): 28.7%; patients with an adverse event ([6]; compassionate use program, Raghu & Thickett 2013): 44%; patients with ADR leading to discontinuation ([6]; patients aged <65 years): 7.5%; patients with ADR leading to dose modification/interruption ([6]; patients aged <65 years): 18.0%; patients with ADR leading to discontinuation ([6]; patients aged ≥80 years): 20.9%; patients with ADR leading to dose modification/interruption ([6]; patients aged ≥80 years): 32.7%; elevations of AST and ALT to >3× ULN ([6]; phase III trials): 3.2%; reported AEs that were GI-related ([6]; single-center retrospective study of 351 patients): 75%
